Read-outs that look alike come from different tables or passages of the source.
Columns and labels:
Assay type in all cases: binding
various enzymes [1] = target: various enzymes (Homo sapiens, UniProt Q9UBF8); settings: compound 1 uM
Protocol: (§1) Ambit profiling was conducted in accordance with the manufacturer's instructions.

various enzymes [2] = target: various enzymes (Homo sapiens, UniProt Q9H2G2); settings: compound 1 uM
Protocol: as §1

various enzymes [3] = target: various enzymes (Homo sapiens, UniProt Q9Y2U5); settings: compound 1 uM
Protocol: as §1

various enzymes [4] = target: various enzymes (Homo sapiens, UniProt P43403); settings: compound 1 uM
Protocol: as §1

various enzymes [5] = target: various enzymes (Homo sapiens, UniProt Q15303); settings: compound 1 uM
Protocol: as §1

various enzymes [6] = target: various enzymes (Homo sapiens, UniProt Q16566); settings: compound 1 uM
Protocol: as §1

various enzymes [7] = target: various enzymes (Homo sapiens, UniProt O75116); settings: compound 1 uM
Protocol: as §1

various enzymes [8] = target: various enzymes (Homo sapiens, UniProt P45984); settings: compound 1 uM
Protocol: as §1

various enzymes [9] = target: various enzymes (Homo sapiens, UniProt P57058); settings: compound 1 uM
Protocol: as §1

various enzymes [10] = target: various enzymes (Homo sapiens, UniProt Q06187); settings: compound 1 uM
Protocol: as §1

various enzymes [11] = target: various enzymes (Homo sapiens, UniProt P35916); settings: compound 1 uM
Protocol: as §1

various enzymes [12] = target: T1, various enzymes (Homo sapiens, UniProt P45985); settings: compound 1 uM
T1 sequence (P45985 1-399): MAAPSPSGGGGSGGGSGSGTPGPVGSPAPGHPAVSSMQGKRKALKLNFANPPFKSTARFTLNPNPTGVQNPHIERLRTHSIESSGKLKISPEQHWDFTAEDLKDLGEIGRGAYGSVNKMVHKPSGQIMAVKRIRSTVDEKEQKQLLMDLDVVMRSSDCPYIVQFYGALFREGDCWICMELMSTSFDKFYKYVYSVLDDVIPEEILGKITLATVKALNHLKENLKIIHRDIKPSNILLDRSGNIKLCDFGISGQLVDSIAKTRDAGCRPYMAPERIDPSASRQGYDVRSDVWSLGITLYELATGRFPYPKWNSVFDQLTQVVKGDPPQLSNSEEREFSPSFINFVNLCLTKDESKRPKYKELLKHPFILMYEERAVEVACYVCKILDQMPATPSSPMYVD
Protocol: as §1

various enzymes [13] = target: various enzymes (Homo sapiens, UniProt P08069); settings: compound 1 uM
Protocol: as §1

various enzymes [14] = target: various enzymes (Homo sapiens, UniProt P19784); settings: compound 1 uM
Protocol: as §1

various enzymes [15] = target: various enzymes (Homo sapiens, UniProt P45983); settings: compound 1 uM
Protocol: as §1

various enzymes [16] = target: various enzymes (Homo sapiens, UniProt P07332); settings: compound 1 uM
Protocol: as §1

various enzymes [17] = target: various enzymes (Homo sapiens, UniProt P00533, DEL752-759); settings: compound 1 uM
Protocol: as §1

various enzymes [18] = target: various enzymes (Homo sapiens, UniProt Q13882); settings: compound 1 uM
Protocol: as §1

various enzymes [19] = target: various enzymes (Homo sapiens, UniProt Q13705); settings: compound 1 uM
Protocol: as §1

various enzymes [20] = target: various enzymes (Homo sapiens, UniProt Q04771); settings: compound 1 uM
Protocol: as §1

various enzymes [21] = target: various enzymes (Homo sapiens, UniProt Q9Y6E0); settings: compound 1 uM
Protocol: as §1

various enzymes [22] = target: various enzymes (Plasmodium falciparum, UniProt P61075)
Protocol: as §1

various enzymes [23] = target: various enzymes (Homo sapiens, UniProt O15111); settings: compound 1 uM
Protocol: as §1

various enzymes [24] = target: various enzymes (Homo sapiens, UniProt O94768); settings: compound 1 uM
Protocol: as §1

various enzymes [25] = target: various enzymes (Homo sapiens, UniProt P08631); settings: compound 1 uM
Protocol: as §1

various enzymes [26] = target: various enzymes (Homo sapiens, UniProt P54762); settings: compound 1 uM
Protocol: as §1

various enzymes [27] = target: various enzymes (Homo sapiens, UniProt P41743); settings: compound 1 uM
Protocol: as §1

various enzymes [28] = target: various enzymes (Homo sapiens, UniProt P68400); settings: compound 1 uM
Protocol: as §1

various enzymes [29] = target: various enzymes (Homo sapiens, UniProt O94921); settings: compound 1 uM
Protocol: as §1

various enzymes [30] = target: various enzymes (Homo sapiens, UniProt P51955); settings: compound 1 uM
Protocol: as §1

various enzymes [31] = target: various enzymes (Homo sapiens, UniProt O43353); settings: compound 1 uM
Protocol: as §1

various enzymes [32] = target: various enzymes (Homo sapiens, UniProt P54760); settings: compound 1 uM
Protocol: as §1

various enzymes [33] = target: various enzymes (Homo sapiens, UniProt P51812); settings: compound 1 uM
Protocol: as §1

various enzymes [34] = target: various enzymes (Homo sapiens, UniProt P07333); settings: compound 1 uM
Protocol: as §1

various enzymes [35] = target: various enzymes (Homo sapiens, UniProt O95819); settings: compound 1 uM
Protocol: as §1

various enzymes [36] = target: various enzymes (Homo sapiens, UniProt O94806); settings: compound 1 uM
Protocol: as §1

Sequence of various enzymes (Homo sapiens, UniProt P51812) (P51812 whole entry): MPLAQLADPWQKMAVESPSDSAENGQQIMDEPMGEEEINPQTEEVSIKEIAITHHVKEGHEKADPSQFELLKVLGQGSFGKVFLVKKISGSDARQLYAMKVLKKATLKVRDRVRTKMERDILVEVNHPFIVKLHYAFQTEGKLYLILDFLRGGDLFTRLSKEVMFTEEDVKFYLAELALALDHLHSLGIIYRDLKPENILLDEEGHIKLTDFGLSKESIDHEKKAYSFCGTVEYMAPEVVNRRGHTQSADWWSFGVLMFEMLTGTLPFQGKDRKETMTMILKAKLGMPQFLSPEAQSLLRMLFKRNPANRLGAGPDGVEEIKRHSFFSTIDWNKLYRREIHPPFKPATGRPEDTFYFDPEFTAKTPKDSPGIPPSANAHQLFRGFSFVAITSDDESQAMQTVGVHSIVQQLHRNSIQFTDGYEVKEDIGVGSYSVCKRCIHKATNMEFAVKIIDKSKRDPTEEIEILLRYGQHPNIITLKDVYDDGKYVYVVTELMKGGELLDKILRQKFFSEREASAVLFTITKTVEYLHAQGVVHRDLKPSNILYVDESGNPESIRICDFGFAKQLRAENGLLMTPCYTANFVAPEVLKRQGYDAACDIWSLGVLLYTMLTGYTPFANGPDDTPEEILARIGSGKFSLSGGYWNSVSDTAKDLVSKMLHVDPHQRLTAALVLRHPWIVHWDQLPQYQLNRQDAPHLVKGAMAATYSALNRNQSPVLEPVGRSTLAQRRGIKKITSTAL
Sequence of various enzymes (Homo sapiens, UniProt P07333) (P07333 20-972): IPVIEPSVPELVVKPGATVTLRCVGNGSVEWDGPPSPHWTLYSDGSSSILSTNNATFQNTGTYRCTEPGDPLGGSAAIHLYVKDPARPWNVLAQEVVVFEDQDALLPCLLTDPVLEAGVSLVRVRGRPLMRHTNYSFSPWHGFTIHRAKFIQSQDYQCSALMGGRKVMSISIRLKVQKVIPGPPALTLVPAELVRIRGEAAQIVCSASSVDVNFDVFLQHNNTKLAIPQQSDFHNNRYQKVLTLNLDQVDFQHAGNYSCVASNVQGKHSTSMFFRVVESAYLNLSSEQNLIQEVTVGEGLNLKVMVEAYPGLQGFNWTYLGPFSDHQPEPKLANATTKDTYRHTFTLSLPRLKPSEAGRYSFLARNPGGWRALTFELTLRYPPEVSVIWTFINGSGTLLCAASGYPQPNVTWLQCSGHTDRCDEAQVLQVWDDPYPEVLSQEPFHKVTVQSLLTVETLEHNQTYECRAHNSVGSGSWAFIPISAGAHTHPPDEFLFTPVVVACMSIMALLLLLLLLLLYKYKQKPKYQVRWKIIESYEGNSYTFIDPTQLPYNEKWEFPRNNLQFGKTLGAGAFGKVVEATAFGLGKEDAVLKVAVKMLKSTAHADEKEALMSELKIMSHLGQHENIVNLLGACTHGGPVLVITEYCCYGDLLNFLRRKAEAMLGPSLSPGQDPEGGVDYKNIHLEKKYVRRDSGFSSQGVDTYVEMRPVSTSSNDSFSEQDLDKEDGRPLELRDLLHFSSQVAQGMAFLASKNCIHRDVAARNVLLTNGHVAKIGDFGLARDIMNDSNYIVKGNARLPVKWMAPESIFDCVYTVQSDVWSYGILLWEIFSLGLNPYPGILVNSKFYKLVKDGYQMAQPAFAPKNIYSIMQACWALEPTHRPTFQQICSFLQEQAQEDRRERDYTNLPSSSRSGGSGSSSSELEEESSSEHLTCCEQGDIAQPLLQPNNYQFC
Sequence of various enzymes (Homo sapiens, UniProt P45984) (P45984 whole entry): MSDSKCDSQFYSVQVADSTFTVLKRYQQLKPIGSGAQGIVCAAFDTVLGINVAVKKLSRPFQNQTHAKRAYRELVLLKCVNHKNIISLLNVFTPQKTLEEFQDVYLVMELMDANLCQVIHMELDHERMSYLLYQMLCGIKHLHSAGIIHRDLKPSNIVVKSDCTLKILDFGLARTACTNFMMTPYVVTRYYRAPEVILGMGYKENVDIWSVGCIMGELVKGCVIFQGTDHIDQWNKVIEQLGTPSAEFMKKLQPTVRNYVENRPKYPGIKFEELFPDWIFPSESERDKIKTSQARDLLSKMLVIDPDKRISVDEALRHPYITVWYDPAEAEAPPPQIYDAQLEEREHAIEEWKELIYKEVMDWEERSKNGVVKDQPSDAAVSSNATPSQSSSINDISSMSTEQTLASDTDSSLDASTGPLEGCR
Sequence of various enzymes (Homo sapiens, UniProt Q9Y6E0) (Q9Y6E0 whole entry): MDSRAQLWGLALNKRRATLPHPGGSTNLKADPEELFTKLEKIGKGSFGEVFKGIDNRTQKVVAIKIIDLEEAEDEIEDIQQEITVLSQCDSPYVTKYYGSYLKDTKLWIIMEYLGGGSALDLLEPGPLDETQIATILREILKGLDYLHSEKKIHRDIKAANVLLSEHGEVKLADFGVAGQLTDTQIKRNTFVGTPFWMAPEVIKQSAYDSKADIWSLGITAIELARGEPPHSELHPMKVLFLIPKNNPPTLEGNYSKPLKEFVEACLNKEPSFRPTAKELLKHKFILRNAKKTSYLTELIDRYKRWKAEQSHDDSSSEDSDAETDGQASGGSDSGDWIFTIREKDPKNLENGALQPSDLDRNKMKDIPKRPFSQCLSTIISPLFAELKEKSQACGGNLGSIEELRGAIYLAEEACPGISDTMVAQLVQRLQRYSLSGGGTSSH
Sequence of various enzymes (Homo sapiens, UniProt O75116) (O75116 whole entry): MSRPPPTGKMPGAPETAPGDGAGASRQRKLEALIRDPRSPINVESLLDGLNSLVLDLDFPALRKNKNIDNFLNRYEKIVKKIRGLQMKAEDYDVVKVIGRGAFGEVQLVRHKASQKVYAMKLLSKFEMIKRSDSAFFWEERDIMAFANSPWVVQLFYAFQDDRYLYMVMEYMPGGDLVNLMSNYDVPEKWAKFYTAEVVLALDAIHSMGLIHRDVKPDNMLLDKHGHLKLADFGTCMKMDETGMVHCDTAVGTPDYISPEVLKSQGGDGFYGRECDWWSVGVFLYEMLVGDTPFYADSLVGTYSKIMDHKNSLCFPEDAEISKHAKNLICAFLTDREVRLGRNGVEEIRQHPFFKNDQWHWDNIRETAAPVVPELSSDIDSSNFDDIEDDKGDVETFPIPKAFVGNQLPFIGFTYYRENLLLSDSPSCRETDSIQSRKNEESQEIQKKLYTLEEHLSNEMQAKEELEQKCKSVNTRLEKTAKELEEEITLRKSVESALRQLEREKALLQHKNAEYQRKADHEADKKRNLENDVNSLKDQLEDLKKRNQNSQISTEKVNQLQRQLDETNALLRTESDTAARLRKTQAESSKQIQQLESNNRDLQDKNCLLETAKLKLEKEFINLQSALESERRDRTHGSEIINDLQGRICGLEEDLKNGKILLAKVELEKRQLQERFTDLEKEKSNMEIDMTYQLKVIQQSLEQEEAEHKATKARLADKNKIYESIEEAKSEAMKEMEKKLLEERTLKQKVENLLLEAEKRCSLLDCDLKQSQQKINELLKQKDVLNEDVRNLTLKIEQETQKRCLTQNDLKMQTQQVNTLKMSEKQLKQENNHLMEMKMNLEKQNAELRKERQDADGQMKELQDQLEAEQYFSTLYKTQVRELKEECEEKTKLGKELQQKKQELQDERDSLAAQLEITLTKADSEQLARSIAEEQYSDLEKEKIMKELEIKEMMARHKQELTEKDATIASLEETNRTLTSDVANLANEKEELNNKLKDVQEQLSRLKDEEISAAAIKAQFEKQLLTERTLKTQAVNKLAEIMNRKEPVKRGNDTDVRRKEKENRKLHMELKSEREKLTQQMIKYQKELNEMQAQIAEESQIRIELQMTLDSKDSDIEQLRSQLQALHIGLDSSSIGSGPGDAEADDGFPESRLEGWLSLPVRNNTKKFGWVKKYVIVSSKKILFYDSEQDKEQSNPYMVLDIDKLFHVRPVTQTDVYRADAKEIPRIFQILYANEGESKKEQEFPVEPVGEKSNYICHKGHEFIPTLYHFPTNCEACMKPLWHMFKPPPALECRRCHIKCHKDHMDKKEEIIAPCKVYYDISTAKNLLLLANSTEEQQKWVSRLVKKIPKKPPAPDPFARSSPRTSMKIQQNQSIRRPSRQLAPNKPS
Sequence of various enzymes (Homo sapiens, UniProt P54762) (P54762 18-984): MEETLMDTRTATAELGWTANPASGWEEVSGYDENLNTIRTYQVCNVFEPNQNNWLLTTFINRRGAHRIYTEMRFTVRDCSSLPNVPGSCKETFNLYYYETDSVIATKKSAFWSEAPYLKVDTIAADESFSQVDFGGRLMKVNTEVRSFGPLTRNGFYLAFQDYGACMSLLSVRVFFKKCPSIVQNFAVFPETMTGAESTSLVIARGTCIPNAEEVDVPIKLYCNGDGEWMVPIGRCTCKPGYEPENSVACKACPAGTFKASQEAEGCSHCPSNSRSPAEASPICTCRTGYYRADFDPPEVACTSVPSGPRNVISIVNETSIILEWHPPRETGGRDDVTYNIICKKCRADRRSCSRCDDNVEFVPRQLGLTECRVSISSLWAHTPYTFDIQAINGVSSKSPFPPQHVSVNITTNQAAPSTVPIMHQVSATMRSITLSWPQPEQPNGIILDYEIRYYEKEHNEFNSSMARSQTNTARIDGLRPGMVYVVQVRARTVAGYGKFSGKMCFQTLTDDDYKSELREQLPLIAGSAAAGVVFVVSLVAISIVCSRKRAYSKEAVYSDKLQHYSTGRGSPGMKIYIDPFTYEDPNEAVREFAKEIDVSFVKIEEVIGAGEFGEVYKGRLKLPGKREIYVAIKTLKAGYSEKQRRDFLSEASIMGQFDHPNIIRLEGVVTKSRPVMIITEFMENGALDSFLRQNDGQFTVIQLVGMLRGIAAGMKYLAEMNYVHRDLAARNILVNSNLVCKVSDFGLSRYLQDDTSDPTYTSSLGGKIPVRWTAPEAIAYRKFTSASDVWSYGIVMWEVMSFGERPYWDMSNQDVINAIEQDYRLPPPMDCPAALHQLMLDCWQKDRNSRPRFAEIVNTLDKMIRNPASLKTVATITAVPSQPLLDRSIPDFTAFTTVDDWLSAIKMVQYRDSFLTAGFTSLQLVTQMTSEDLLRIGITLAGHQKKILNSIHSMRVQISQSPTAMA

Row | Compound | Ambit profiling: PIK4CB (various enzymes [1]) | Ambit profiling: SLK (various enzymes [2]) | Ambit profiling: MAP3K2 (various enzymes [3]) | Ambit profiling: ZAP70 (various enzymes [4]) | Ambit profiling: ERBB4 (various enzymes [5]) | Ambit profiling: CAMK4 (various enzymes [6]) | Ambit profiling: ROCK2 (various enzymes [7]) | Ambit profiling: JNK2 (various enzymes [8]) | Ambit profiling: HUNK (various enzymes [9]) | Ambit profiling: BTK (various enzymes [10]) | Ambit profiling: FLT4 (various enzymes [11]) | Ambit profiling: MEK4 (various enzymes [12]) | Ambit profiling: IGF1R (various enzymes [13]) | Ambit profiling: CSNK2A2 (various enzymes [14]) | Ambit profiling: JNK1 (various enzymes [15]) | Ambit profiling: FES (various enzymes [16]) | Ambit profiling: EGFR(S752-I759del) (various enzymes [17]) | Ambit profiling: BRK (various enzymes [18]) | Ambit profiling: ACVR2B (various enzymes [19]) | Ambit profiling: ACVR1 (various enzymes [20]) | other results
1 | CC(C)N1Cc2nn(C)cc2-c2cnc3[nH]cc(c3c2)-c2cn(nc2C(F)(F)F)CCCC1=O [Compound 45, (Z)-5-isopropyl-31-methyl-13-(trifluoromethyl)-11H,21H,31H-5-aza-2(3,5)-pyrrolo[2,3-b]pyridina-1(4,1),3(4,3)-dipyrazolacyclononaphan-6-one] | 99 | 2.8 | 0.45 | 83 | 55 | 100 | 100 | 21 | 16 | 55 | 0.1 | 0.5 | 86 | 1.8 | 18 | 74 | 66 | 100 | 79 | 18 | Ambit profiling: MST3 (various enzymes [21]): 57; Ambit profiling: PFPK5(P. falciparum) (various enzymes [22]; compound 1 uM): 82; Ambit profiling: IKK-alpha (various enzymes [23]): 100; Ambit profiling: DRAK2 (various enzymes [24]): 100; Ambit profiling: HCK (various enzymes [25]): 24; Ambit profiling: EPHB1 (various enzymes [26]): 51; Ambit profiling: PRKCI (various enzymes [27]): 9.1; Ambit profiling: CSNK2A1 (various enzymes [28]): 19; Ambit profiling: PFTK1 (various enzymes [29]): 14; Ambit profiling: NEK2 (various enzymes [30]): 49; Ambit profiling: RIPK2 (various enzymes [31]): 12; Ambit profiling: EPHB4 (various enzymes [32]): 76; Ambit profiling: RSK2(Kin.Dom.1-N-terminal) (various enzymes [33]): 0.9; Ambit profiling: RSK2(Kin.Dom.2-C-terminal) (various enzymes [33]): 100; Ambit profiling: CSF1R (various enzymes [34]): 8.4; Ambit profiling: CSF1R-autoinhibited (various enzymes [34]): 39; Ambit profiling: MAP4K4 (various enzymes [35]): 3.5; Ambit profiling: PRKD3 (various enzymes [36]): 11
2 | COc1c2c(nn1C)CN(C(C)C)C(=O)CCCn1cc(c(C(F)(F)F)n1)-c1c[nH]c3ncc-2cc13 [Compound 50, (Z)-5-isopropyl-35-methoxy-31-methyl-13-(trifluoromethyl)-11H,21H,31H-5-aza-2(3,5)-pyrrolo[2,3-b]pyridina-1(4,1),3(4,3)-dipyrazolacyclononaphan-6-one] | 31 | 0.4 | 0.5 | 100 | 32 | 100 | 67 | 7.5 | 8 | 56 | 0.1 | 16 | 69 | 8.7 | 4.1 | 31 | 48 | 80 | 92 | 14 | Ambit profiling: MST3 (various enzymes [21]): 63; Ambit profiling: PFPK5(P. falciparum) (various enzymes [22]): 79; Ambit profiling: IKK-alpha (various enzymes [23]): 83; Ambit profiling: DRAK2 (various enzymes [24]): 98; Ambit profiling: HCK (various enzymes [25]): 8.1; Ambit profiling: EPHB1 (various enzymes [26]): 48; Ambit profiling: PRKCI (various enzymes [27]): 42; Ambit profiling: CSNK2A1 (various enzymes [28]): 59; Ambit profiling: PFTK1 (various enzymes [29]): 60; Ambit profiling: NEK2 (various enzymes [30]): 68; Ambit profiling: RIPK2 (various enzymes [31]): 11; Ambit profiling: EPHB4 (various enzymes [32]): 40; Ambit profiling: RSK2(Kin.Dom.1-N-terminal) (various enzymes [33]): 1.2; Ambit profiling: RSK2(Kin.Dom.2-C-terminal) (various enzymes [33]): 100; Ambit profiling: CSF1R (various enzymes [34]): 3.3; Ambit profiling: CSF1R-autoinhibited (various enzymes [34]): 27; Ambit profiling: MAP4K4 (various enzymes [35]): 3; Ambit profiling: PRKD3 (various enzymes [36]): 15

From patent US12157741B2, “Macrocyclic inhibitors of DYRK1A” (DANA-FARBER CANCER INSTITUTE, INC., priority 2018, dated 2024)
